In patent EP2958945B1, “COMBINATION THERAPY INVOLVING ANTIBODIES AGAINST CLAUDIN 18.2 FOR TREATMENT OF CANCER” (Astellas Pharma Inc., priority 2013, dated 2014):

How the values were obtained:
Format in all cases: cell-based, human
Kato III cells [1] = test: Viable cells after 3 days pretreatment, Kato III; conditions: Kato III pretreated 3 days; Irinotecan 1000 ng/ml, Docetaxel 5 ng/ml, Cisplatin 2000 ng/ml; vs medium cultivated cells
Procedure: (§1) Peripheral blood mononuclear cells (PBMCs) including NK cells, monocytes, […] or other effector cells from healthy human donors were purified by Ficoll Hypaque density centrifugation. Washed effector cells were seeded in X-Vivo medium. Kato III cells which express CLDN18.2 endogenously and are of gastric origin were used as target cells in this setting. Target cells stably expressed luciferase, lucifer yellow, which is oxidized by viable cells only.

CLDN18.2 = CLDN18.2 expression after 3 days pretreatment, Kato III; conditions: Kato III pretreated 3 days; Irinotecan 1000 ng/ml, Docetaxel 5 ng/ml, Cisplatin 2000 ng/ml; vs medium cultivated cells
Kato III cells [2] = test: IMAB362 induced ADCC on chemotherapy pretreated Kato III; conditions: Kato III pretreated 3 days; Irinotecan 1000 ng/ml, Docetaxel 5 ng/ml, Cisplatin 2000 ng/ml
Procedure: as §1

Kato III cells [3] = test: Cell cycle analysis and cell growth, Kato III; conditions: for cell cycle arrest: Kato III pretreated for 4 days
Procedure: Kato III cells, a human gastric tumor cell line, was cultivated in RPMI 1640 medium (Invitrogen) containing 20% FCS (Perbio) and 2 mM Glutamax (Invitrogen) at 37°C and 5% CO2, with or without cytostatic compounds. 5-FU (Neofluor from NeoCorp AG) was tested at a concentration of 10 or 100 ng/ml, and oxaliplatin (Hospira) was tested at a concentration of 50 or 500 ng/ml. […] Cells were harvested with EDTA/trypsin, washed and analysed.
Cell cycle stages were determined based on measurement of cellular DNA content. This allows one to discriminate between cells in the G1-, S- or G2-phase of the cell cycle. In the S-phase DNA duplication occurs whereas in the G2-phase cells grow and prepare for mitosis. Cell cycle analysis was done using the CycleTEST PLUS DNA Reagent Kit from BD Biosciences following the manufacturer's protocol. Flow cytometry acquisition and analysis were performed by using BD FACS CantoII (BD Biosciences) and FlowJo (Tree Star) software.
Kato III cells were pretreated for 4 days with Irinotecan or Docetaxel and analysed for CLDN18.2 expression and cell cycle arrest.

Compound	level of viable cells (Kato III cells [1])	claudin18.2 expression (CLDN18.2)	potency of IMAB362 to induce ADCC (Kato III cells [2])	cell cycle phase distribution (Kato III cells [3]; Kato III, 5-FU 10 or 100 ng/ml, oxaliplatin 50 or 500 ng/ml, 96 hours)	cell cycle arrest (Kato III cells [3])
N.N.[Cl][Pt][Cl] [Cisplatin, cis-diamminedichloroplatinum(II)]	lower level of viable cells	increased	augmented		
O=c1[nH]cc(F)c(=O)[nH]1 [5-FU, 5-fluoro-1H-pyrimidine-2,4-dione]				blocked predominantly in the S-phase	
CCc1c2c(nc3ccc(OC(=O)N4CCC(N5CCCCC5)CC4)cc13)-c1cc3c(c(=O)n1C2)COC(=O)[C@]3(O)CC [Irinotecan, (S)-4,11-diethyl-3,4,12,14-tetrahydro-4-hydroxy-3,14-dioxo1H-pyrano[3',4':6,7]-indolizino[1,2-b]quinolin-9-yl-[1,4'-bipiperidine]-1'-carboxylate]	lower level of viable cells		augmented		cell cycle arrest in the S/G2-phase
CC(=O)O[C@@]12CO[C@@H]1C[C@H](O)[C@@]1(C)C(=O)[C@H](O)C3=C(C)[C@@H](OC(=O)[C@H](O)[C@@H](NC(=O)OC(C)(C)C)c4ccccc4)C[C@@](O)([C@@H](OC(=O)c4ccccc4)[C@H]21)C3(C)C [Docetaxel, 1,7β,10β-trihydroxy-9-oxo-5β,20-epoxytax-11-ene-2α,4,13α-triyl 4-acetate 2-benzoate 13-{(2R,3S)-3-[(tert-butoxycarbonyl)-amino]-2-hydroxy-3-phenylpropanoate}]	lower level of viable cells	increased	augmented		cell cycle arrest in the G2-phase
